Results on two molecules are retold here after publication PMC9569529, “Safe and Efficient Sigma1 Ligand: A Potential Drug Candidate for Multiple Sclerosis” (International Journal of Molecular Sciences, 2022).

A short description of data set [1]: Bidirectional permeability in Caco-2 (pH 6.5/7.4). The format is in vitro ADME, human. The note with it: human; for Papp A→B at 10 µM: Caco-2, pH 6.5, Caco-2, 10 µM, read-out: Permeability A/B pH6.5/7.4; for efflux ratio at 10 µM: Caco-2, pH 6.5, Papp(B-A)/Papp(A-B), pH 6.5/7.4, read-out: e-ratio (efflux ratio); for Papp B→A at 10 µM: pH 6.5, Caco-2, 10 µM, read-out: Permeability B/A pH6.5/7.4. The method, then: (§1) The compound was classically evaluated at 10 µM for all the ADME analyses. Bidirectional permeability (apical A to basolateral B pH 6.5/7.4 and basolateral B to apical A pH 7.4/6.5) was assessed in the epithelial colorectal adenocarcinoma cell line (Caco-2 cell line). Results were expressed as × 10^−6cm/s (Papp) and as % recovery. Efflux ratio, i.e., Papp(B-A)/Papp(A-B), was calculated. Plasma protein binding was analyzed by HPLC-MS/MS after 4-h incubation at 37 °C, as described by Banker et al.. Concentration was evaluated by LC/MS-MS. CYP inhibition was performed in human liver microsomes as described in [61]. Analysis of the respective metabolites. was performed by HPLC-MS/MS. Transporter inhibition analysis was also performed in overexpressing cell lines. Respective metabolites for each specific transporter substrate were analyzed by fluorometry or scintillation counting and % inhibition of control values were calculated. P-glycoprotein transporter substrate assessment was performed by bidirectional permeability analysis (apical A to basolateral B pH 7.4/7.4 and basolateral B to apical A pH 7.4/7.4) in the Caco-2 cell line with and without verapamil, as described in [59]. Results were expressed as ×10^−6 cm/s (Papp) and as % recovery. The efflux ratio, i.e., Papp(B-A)/Papp(A-B), was calculated. CYP450 induction characterization was performed on human hepatocytes. The mRNA levels of 7 different CYPs were analyzed by qPCR, as described in [72]. The compound was evaluated at 1, 10 and 100 µM. Fold-induction values were determined and compared to cut-off values, as defined for each CYP isozyme in each hepatocyte lot.
In general terms: Passage across Caco-2 layers is used to estimate intestinal permeability.

A short description of data set [2]: Microsomal stability in human liver microsomes. The format is in vitro ADME. The note with it: hLM; for half-life at 10 µM / microsomal CLint at 10 µM: human, liver microsomes. The method, then:
(§2) Metabolic stability analysis (mouse and human liver microsomes) was performed by Eurofins Cerep (Poitiers, France) at 10 µM as described in [55]. Results were obtained at 15, 30, 45 and 60 min. Results were expressed as percent of the parent compound remaining, and calculated by comparing the peak area of the compound at the time point relative to that at time 0. The half-life (t1/2) and the apparent intrinsic clearance (CLint) were evaluated.
Metabolite identification was performed by HPLC-High Resolution mass spectrometry (MS). Chromatographic separation was performed on an Accela UPLC system (Thermo Fisher Scientific Inc. Waltham, MA, USA) equipped with an ACE 3 C18-AR column (100 × 2.1 mm, particle size 3 μm; AIT, Cormeilles-en-Parisis, France) preceded by a guard column (same stationary phase). The elution was performed with a gradient mode using water (solvent A) and ACN (solvent B), all acidified with 0.1% formic acid. The linear gradient elution program was as follows: 10% of B for 2 min; linear increase from 10 to 90% of solvent B for 20 min; 1 min at 90% of B; and 2 min of re-equilibration with 10% of B for a total run of 25 min. The LC flow rate was 400 µL/min and the injection volume was 10 μL. The column oven temperature was 30 °C and the sample tray temperature 4 °C. Eluted compounds were detected in positive mode by a full mass scan (m/z 200 to 500) using a Orbitrap Mass Spectrometer Exactive (Thermo Fisher Scientific Inc. Waltham, MA, USA) equipped with a heated electrospray ionization source (HESI-II). Instrument parameters were as follows: sheath gas 35, auxiliary gas 10 (both arbitrary units), spray voltage 2.4 kV, capillary temperature 275 °C, capillary voltage 67.5 V, tube lens voltage 120 V, skimmer voltage 24 V and source temperature 350 °C. Mass spectra were recorded at an ultra-high resolution (100,000). Instrument control, data acquisition and processing were performed using the associated Thermo Scientific software package (Xcalibur v.2.2 and Exactive v1.1).
For orientation: Microsomes from liver hold many membrane-bound enzymes, among them those of drug oxidation.

Data set [3] in a line: Solubility, shake-flask method. It is filed as physicochemical. The following applies: thermodynamic from solid. The method, then:
Standardized in vitro ADME experiments were performed by Eurofins Cerep (Poitiers, France). Solubility assays were performed in PBS at pH 7.4, but also in simulated gastric fluid (SGF) and intestinal fluid (SIF), through the classical shake-flask method according to Lipinski et al. using HPLC-UV/VIS technology. Results were expressed in µM.

A short description of the next data set: Plasma protein binding. The following applies: 4-h incubation at 37 °C, read-out: PPB (converted). It is filed as in vitro ADME. The method, then: as §1, with “P-glycoprotein transporter substrate assessment was performed by bidirectional permeability analysis (apical A to basolateral B pH 7.4/7.4 and basolateral B to apical A pH 7.4/7.4) in the Caco-2 cell line with and without verapamil, as described in [59].” left out, “CYP450 induction characterization was performed on human hepatocytes.” left out

Data set [4] in a line: Microsomal stability in mouse liver microsomes. It is filed as in vitro ADME. The note with it: mLM; for Compound Remaining (1 h, %): 10 µM; for half-life at 10 µM / microsomal CLint at 10 µM: mouse, liver microsomes. The method, then:
as §2

Another data set can be described thus: Plasma stability. The format is in vitro ADME. The following applies: male, CD-1, mouse, 37 °C, read-out: Plasma t½ (converted). The method, then: Plasma stability analyses were performed by M2SV (Lille, France). Incubations were performed in duplicate. The plasma (male mouse plasma CD-1, lithium-heparinized, from Sera Laboratories International Ltd. BioIVT, West Sussex, UK) was pre-incubated for 10 min at 37 °C before addition of the compound to a final concentration of 10 µM (0,1% DMSO). At the defined time points (0, 60, 1440 and 2880 min), fractions from each tube were transferred to fresh tubes containing cold CH3CN and an internal standard (Propanolol at 1 µM). After vigorous agitation and centrifugation (10 min at 10,000 rpm), the supernatants were analyzed. The degradation half-life (t1/2) values were calculated in minutes and hours via non-linear regression analysis using Microsoft® XLfit® Excel add-in from IDBS Ltd, Woking, UK.

In a further data set the target is MRP2 (Homo sapiens, UniProt Q92887). Put plainly: Drug transporter inhibition (ABC family). The format is in vitro ADME. The note with it: transporter-overexpressing cell lines, read-out: Drug transporters inhibition MRP2. The method, then:
as §1

In a further data set the target is T1, P-gp (Homo sapiens, UniProt P08183).
T1 construct: in the Caco-2 cell line with and without verapamil; host or cells: Caco-2
T1 sequence (P08183 whole entry): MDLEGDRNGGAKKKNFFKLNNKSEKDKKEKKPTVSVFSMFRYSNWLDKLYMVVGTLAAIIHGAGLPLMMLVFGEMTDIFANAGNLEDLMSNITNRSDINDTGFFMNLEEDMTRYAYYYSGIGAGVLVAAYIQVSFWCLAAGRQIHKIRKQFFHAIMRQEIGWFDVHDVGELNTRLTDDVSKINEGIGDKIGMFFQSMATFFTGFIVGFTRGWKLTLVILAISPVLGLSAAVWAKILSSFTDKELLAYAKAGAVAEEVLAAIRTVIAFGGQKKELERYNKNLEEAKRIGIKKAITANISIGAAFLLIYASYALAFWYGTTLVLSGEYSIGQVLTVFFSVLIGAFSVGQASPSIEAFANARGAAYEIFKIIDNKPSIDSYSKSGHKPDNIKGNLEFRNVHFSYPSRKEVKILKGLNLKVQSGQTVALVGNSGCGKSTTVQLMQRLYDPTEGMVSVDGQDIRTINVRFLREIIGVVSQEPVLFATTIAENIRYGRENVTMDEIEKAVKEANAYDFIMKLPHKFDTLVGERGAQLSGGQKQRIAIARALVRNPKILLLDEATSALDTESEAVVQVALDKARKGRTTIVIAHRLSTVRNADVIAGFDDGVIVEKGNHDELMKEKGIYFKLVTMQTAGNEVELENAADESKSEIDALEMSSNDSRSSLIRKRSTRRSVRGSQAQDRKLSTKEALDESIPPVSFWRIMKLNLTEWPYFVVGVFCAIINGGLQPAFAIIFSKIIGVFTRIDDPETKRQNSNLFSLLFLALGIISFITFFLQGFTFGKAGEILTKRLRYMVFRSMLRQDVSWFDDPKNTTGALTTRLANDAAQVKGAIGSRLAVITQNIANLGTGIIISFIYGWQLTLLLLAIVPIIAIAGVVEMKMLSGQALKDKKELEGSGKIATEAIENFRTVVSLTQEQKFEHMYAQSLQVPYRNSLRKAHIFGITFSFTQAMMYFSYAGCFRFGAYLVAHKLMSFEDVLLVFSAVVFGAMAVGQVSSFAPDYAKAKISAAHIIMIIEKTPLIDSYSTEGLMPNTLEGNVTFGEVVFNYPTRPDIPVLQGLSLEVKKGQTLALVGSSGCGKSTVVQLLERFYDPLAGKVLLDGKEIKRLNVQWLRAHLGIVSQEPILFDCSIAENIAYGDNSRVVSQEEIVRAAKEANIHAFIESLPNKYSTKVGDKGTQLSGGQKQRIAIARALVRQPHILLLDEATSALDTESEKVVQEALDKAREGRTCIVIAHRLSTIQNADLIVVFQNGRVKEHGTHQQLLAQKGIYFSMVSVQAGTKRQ
The experiment in a line: Drug transporter inhibition (ABC family). It is filed as in vitro ADME. The note with it: transporter-overexpressing cell lines, read-out: Drug transporters inhibition P-gp. The method, then:
as §1

The next data set deals with MRP1 (Homo sapiens, UniProt P33527). The experiment in a line: Drug transporter inhibition (ABC family). The format is in vitro ADME. The note with it: transporter-overexpressing cell lines, read-out: Drug transporters inhibition MRP1. The method, then: as §1
MRP1, sequence (P33527 whole entry): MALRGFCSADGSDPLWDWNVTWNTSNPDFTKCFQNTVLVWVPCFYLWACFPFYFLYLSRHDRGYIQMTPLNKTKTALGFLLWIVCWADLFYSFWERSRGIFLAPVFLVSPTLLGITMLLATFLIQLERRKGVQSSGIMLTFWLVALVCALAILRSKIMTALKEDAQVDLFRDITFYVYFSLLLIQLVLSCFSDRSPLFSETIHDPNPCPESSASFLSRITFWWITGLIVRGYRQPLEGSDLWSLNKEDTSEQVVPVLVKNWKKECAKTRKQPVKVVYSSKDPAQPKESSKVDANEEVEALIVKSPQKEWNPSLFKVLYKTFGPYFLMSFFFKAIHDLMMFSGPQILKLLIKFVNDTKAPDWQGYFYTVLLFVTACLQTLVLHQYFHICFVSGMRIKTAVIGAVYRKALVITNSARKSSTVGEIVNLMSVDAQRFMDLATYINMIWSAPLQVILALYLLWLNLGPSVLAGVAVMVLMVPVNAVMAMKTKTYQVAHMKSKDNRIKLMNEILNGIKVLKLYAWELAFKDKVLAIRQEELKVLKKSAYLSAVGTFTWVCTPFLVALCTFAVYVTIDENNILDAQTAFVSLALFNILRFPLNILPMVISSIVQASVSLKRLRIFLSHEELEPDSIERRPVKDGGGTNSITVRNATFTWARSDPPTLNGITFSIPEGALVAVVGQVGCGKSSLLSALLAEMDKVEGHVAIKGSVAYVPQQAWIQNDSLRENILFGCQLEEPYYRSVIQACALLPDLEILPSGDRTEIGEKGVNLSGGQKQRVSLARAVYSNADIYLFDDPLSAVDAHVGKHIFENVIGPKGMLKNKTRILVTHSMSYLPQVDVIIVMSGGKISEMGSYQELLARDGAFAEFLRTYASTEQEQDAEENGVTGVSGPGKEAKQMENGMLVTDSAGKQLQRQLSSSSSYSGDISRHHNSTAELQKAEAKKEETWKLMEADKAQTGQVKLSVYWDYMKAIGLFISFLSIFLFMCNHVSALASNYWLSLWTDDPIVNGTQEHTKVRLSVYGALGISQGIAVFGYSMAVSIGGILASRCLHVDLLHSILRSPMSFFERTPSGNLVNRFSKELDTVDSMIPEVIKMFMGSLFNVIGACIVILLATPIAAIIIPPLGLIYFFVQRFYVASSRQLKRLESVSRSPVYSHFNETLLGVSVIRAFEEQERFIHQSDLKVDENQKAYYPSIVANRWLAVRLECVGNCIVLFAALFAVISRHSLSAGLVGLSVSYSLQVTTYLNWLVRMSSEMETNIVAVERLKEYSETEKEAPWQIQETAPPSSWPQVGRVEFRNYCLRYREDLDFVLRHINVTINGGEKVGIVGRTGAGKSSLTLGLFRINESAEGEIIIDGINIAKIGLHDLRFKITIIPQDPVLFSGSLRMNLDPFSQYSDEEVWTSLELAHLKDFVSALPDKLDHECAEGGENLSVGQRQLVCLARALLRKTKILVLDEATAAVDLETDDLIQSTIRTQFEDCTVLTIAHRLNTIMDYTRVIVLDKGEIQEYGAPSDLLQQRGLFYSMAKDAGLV
The target in another data set is MRP3 (Homo sapiens, UniProt O15438). The experiment in a line: Drug transporter inhibition (ABC family). The format is in vitro ADME. The note with it: transporter-overexpressing cell lines, read-out: Drug transporters inhibition MRP3. The method, then: as §1
MRP3, sequence (O15438 whole entry): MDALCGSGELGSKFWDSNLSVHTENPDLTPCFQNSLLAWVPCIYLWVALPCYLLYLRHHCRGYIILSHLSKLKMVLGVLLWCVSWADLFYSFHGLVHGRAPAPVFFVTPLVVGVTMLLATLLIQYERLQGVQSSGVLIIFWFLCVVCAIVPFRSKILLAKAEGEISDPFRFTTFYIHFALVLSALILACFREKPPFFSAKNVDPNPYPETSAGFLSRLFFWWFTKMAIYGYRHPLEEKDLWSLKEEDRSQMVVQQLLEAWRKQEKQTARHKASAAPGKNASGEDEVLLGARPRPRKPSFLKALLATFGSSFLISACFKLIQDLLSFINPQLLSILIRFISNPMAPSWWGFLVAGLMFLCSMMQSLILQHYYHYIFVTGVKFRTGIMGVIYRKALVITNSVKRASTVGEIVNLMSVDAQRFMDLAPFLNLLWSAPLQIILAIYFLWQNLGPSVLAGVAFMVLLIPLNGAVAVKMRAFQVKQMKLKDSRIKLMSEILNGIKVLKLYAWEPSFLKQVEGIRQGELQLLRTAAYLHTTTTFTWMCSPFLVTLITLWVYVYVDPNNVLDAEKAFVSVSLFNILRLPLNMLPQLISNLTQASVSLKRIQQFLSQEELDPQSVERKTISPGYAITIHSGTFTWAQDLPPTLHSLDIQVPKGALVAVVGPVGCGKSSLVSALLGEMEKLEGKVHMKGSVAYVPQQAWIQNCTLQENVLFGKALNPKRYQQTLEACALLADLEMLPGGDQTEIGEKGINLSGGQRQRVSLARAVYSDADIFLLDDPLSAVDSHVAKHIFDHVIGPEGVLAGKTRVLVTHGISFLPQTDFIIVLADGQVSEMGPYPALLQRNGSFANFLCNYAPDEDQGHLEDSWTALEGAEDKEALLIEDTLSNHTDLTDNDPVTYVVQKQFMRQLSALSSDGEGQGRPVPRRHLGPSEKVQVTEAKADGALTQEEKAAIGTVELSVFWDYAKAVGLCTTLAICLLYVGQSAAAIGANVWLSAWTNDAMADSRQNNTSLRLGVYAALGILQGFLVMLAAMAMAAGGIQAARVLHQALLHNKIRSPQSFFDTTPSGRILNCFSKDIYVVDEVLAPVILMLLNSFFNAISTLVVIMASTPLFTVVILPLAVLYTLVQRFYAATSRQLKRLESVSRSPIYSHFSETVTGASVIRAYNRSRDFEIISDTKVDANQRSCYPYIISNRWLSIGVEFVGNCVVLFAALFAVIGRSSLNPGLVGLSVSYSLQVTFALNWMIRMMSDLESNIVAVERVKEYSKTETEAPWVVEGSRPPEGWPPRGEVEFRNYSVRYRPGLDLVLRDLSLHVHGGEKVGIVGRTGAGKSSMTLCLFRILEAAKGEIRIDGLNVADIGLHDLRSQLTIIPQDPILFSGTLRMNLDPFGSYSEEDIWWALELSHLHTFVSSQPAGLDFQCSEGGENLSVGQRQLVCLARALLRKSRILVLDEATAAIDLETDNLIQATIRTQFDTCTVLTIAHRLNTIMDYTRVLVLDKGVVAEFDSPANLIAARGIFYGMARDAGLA
The next data set concerns the target BCRP (Homo sapiens, UniProt Q9UNQ0). The experiment in a line: Drug transporter inhibition (ABC family). The format is in vitro ADME. The note with it: transporter-overexpressing cell lines, read-out: Drug transporters inhibition BCRP. The method, then: as §1
Where [5] appears, read: PBS pH 7.4, pH 7.4, aqueous buffer, read-out: Solubility PBS pH7.4.
[6] abbreviates: simulated gastric fluid (SGF), simulated gastric fluid, read-out: Solubility SGF.
Setting [7] is: simulated intestinal fluid (SIF), fassgf or other biorelevant, read-out: Solubility SIF.

Converted amounts (≈) assume the structure as drawn. Where two headings read alike, the source gives them in different places.

BCRP, sequence (Q9UNQ0 whole entry): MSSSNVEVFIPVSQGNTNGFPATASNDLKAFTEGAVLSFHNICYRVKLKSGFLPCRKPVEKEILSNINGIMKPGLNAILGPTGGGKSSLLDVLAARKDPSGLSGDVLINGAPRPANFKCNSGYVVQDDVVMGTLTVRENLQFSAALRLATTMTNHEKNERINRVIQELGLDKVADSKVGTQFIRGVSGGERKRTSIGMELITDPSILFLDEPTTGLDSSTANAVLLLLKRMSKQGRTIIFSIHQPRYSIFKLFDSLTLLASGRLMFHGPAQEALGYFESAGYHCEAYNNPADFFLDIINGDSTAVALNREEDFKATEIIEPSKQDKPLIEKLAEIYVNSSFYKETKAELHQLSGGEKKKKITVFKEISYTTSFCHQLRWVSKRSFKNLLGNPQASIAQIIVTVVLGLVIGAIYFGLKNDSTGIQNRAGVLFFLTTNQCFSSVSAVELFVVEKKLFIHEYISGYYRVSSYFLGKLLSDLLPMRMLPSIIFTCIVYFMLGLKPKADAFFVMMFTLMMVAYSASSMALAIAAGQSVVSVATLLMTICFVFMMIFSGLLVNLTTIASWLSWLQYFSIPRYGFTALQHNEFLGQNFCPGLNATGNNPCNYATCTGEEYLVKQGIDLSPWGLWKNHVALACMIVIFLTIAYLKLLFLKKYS

Usually microsomal CLint stands for a measure of how fast metabolising enzymes remove a compound, apart from limits set by blood flow. Low readings indicate greater metabolic stability, high ones faster metabolism. A word on the solubility: it is the concentration that dissolves in the medium under given conditions. In general, inhibition refers to the relative decrease from the control value, in per cent. As to `O=C(NCCCNCc1ccccc1)c1ccc(Cl)cc1` [compound 7i-deMe], the Papp A→B at 10 µM in data set [1] amounted to 31.1 ×10⁻⁶ cm/s. In [1], the efflux ratio at 10 µM is 1.7. For the same molecule, in data set [1], the Papp B→A at 10 µM turned out to be 51.5 ×10⁻⁶ cm/s. Besides, in [2] (10 µM), the t1/2 is reported as 10.0 h. Besides, the “Compound Remaining (1 h, %)” value in data set [2] (10 µM) is listed as 83%; in [4], 80%. The figures for the half-life at 10 µM (in data set [2]; in data set [4]; in “Plasma stability”) were above 9 h, above 3 h and 23 h, respectively. The microsomal CLint at 10 µM in data set [2] and in data set [4] was below 115 µL/min/mg throughout. Also, the solubility in data set [3] (setting [5]) is 187 µM (≈ 56.6 µg/mL); in data set [3] (setting [6]) it was 197 µM (≈ 59.7 µg/mL); in data set [3] (setting [7]), 196 µM (≈ 59.3 µg/mL). The fraction unbound at 4 h, 10 µM in the data set “Plasma protein binding” is 0.19. In addition, the inhibition at 10 µM on MRP2 was -11.5%; on P-gp, 1%; at MRP1 it was -3.4%; on MRP3, -0.6%; on BCRP, -3%.
For the molecule `CN(CCCNC(=O)c1ccc(Cl)cc1)Cc1ccccc1` [compound 7i], the Papp A→B at 10 µM in data set [1] is at most 20 ×10⁻⁶ cm/s. For the same molecule, the efflux ratio at 10 µM in data set [1] was around 2. Besides, the Papp B→A at 10 µM in [1] came out at 66.1 ×10⁻⁶ cm/s. Also, the “Compound Remaining (1 h, %)” value in [2] (10 µM) is 66%; in data set [4], 54%. The half-life at 10 µM in [2] is above 1 h; in data set [4], above 1 h; in “Plasma stability” it was above 24 h. For the same molecule, the microsomal CLint at 10 µM in data set [2] and in data set [4] was below 115 µL/min/mg each time. The solubility in [3] (setting [5]) is 185 µM (≈ 58.6 µg/mL); in [3] (setting [6]) it was 193 µM (≈ 61.1 µg/mL); in data set [3] (setting [7]), 188 µM (≈ 59.6 µg/mL). Also, the fraction unbound at 4 h, 10 µM in the data set “Plasma protein binding” was above 0.05. Also, the inhibition at 10 µM at MRP2 was -18.8%; on P-gp it was 10.6%; on MRP1, 1.9%; at MRP3, -0.3%; on BCRP it was 8.3%.
